Drawing on ChEMBL document CHEMBL3817797, “Crystal Structure of Human E-Cadherin-EC1EC2 in Complex with a Peptidomimetic Competitive Inhibitor of Cadherin Homophilic Interaction” (J Med Chem, 2016), this text covers inhibition and Activity for 2 molecules.

Active and inactive are the calls of the source. The calls are words filed in the database; no cut-off is given here.

The target of experiment [1] is T1, Cadherin-2 (Homo sapiens) (UniProt P19022).
T1 sequence (whole entry): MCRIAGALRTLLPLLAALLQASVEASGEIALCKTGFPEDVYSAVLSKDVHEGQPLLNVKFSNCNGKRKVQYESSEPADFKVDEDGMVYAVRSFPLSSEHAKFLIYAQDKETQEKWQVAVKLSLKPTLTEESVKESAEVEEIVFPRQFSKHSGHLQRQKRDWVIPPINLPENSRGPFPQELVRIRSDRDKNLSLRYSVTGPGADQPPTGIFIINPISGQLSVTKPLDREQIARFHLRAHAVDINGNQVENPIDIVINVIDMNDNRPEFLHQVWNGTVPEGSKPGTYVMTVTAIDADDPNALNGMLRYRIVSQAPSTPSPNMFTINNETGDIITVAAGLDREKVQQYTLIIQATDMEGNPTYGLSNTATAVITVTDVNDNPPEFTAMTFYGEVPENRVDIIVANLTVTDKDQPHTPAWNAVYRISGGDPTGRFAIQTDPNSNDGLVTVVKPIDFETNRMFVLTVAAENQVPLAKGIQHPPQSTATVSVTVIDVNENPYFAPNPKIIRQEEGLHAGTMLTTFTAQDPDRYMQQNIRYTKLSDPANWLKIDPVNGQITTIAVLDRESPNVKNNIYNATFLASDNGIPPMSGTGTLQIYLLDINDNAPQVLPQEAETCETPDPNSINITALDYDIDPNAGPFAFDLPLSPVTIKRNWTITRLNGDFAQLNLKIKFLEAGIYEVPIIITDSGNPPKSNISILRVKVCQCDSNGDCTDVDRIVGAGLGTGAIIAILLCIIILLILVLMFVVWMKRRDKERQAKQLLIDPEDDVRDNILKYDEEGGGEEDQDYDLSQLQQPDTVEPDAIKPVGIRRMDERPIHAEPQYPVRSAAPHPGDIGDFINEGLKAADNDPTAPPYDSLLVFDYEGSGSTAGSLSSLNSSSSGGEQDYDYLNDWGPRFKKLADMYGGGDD
Briefly: Inhibition of recombinant N-cadherin-Fc chimeric protein (unknown origin) homodimerization at 10 uM preincubated for 30 mins followed by N-cadherin-Fc addition by surface plasmon resonance analysis relative to control. (In general: SPR reads the build-up and loss of mass on a sensor chip optically.)

The target in experiment [2] is T1, Cadherin-2 (Homo sapiens). Briefly: Inhibition of N-cadherin-Fc chimeric protein binding to N-cadherin in human SKOV3 cells at 2 mM preincubated for 1 hr followed by N-cadherin-Fc addition measured after 2 hrs by ELISA relative to control. In kind it is cell-based. The settings on record: SK-OV-3.
Experiment [3] deals with T2, Cadherin-1 (Homo sapiens) (UniProt P12830).
T2 sequence (whole entry): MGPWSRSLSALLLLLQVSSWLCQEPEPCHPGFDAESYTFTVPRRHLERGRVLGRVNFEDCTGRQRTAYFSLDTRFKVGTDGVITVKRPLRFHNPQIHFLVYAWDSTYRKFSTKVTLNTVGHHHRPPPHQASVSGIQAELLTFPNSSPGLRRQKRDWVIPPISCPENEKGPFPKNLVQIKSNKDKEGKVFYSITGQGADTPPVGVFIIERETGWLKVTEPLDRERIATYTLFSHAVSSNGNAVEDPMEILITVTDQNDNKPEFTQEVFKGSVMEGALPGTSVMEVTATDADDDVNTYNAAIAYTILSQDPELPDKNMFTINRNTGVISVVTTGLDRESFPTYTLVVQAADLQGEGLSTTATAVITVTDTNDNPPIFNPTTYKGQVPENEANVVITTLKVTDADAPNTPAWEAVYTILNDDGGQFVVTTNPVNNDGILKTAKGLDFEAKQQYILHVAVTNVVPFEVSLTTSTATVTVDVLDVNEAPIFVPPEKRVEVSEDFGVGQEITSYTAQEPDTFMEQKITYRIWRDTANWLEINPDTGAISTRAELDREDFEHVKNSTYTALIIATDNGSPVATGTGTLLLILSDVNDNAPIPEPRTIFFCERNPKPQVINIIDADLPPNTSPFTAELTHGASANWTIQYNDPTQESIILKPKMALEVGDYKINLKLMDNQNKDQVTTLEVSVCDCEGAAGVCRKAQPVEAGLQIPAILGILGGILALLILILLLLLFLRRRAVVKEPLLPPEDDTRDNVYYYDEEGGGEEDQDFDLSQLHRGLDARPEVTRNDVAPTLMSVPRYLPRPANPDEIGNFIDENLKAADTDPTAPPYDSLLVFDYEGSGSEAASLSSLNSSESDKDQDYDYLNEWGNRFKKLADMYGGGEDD
Briefly: Inhibition of E-cadherin-Fc chimeric protein binding to E-cadherin in human OAW42 cells at 2 mM preincubated for 1 hr followed by E-cadherin-Fc addition measured after 2 hrs by ELISA relative to control. In kind it is cell-based. As to conditions: OAW-42. A general note: In an ELISA, binding on a coated surface is turned into a signal by an enzyme label.

Experiment [4] has as its target T1, Cadherin-2 (Homo sapiens). Description: Inhibition of N-cadherin-Fc chimeric protein binding to N-cadherin in human SKOV3 cells at 1 mM preincubated for 1 hr followed by N-cadherin-Fc addition measured after 2 hrs by ELISA relative to control. In kind it is cell-based. As to conditions: SK-OV-3.
The target of experiment [5] is T2, Cadherin-1 (Homo sapiens). Briefly: Binding affinity to E-cadherin in human OAW42 cells assessed as effect on PI3K/Akt signalling activation by measuring phosphorylation of Akt at Ser-473 residue at 1 to 2 mM by immunoblot analysis. Type of experiment: cell-based. The settings on record: OAW-42.

For orientation: inhibition means the change of the read-out against control, counted positive when it falls. Regarding `CC[C@H](C)[C@H](NC(=O)C[C@@H]1NC(=O)[C@H](CNC(=O)[C@@H](N)CC(=O)O)N(Cc2ccccc2)C1=O)C(=O)NC(C)(C)C`, the inhibition in experiment [1] was found to be 55%; in experiment [2], 84%; in experiment [3], 50%; in experiment [4], 65%. Moreover, the outcome in experiment [5] was Active.
Take `CC(=O)N[C@H]1CSSC[C@@H](C(N)=O)NC(=O)[C@H](C(C)C)NC(=O)[C@H](C)NC(=O)[C@H](Cc2c[nH]cn2)NC1=O`: the inhibition in experiment [1] was found to be 28%; in experiment [2], 50%; in experiment [3], 30%. In addition, the inhibition entry in experiment [4] was “inactive”.
